In the supplement of paper PMC11208160:
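Also: IS621 recombinase and bridge RNA in Escherichia coli cells.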

Assay: recombinant barcode read abundance after kanamycin selection (control-corrected) (log10(CPM+1)); higher = more efficient recombination; sequences stand for … in AGTGCAGAGAAAATCGGCCAGTTTTCTCTGCCTGCAGTCCGCATGCCGT…AGATTTATGCAGCGGACTGCCTTTCTCCCAAAGTGATAAACCGGACAGTATCATGGACCGGTTTTCCCGGTAATCCGTATTTGCAAGGTTGGTTTCACT; site = the 11-nt target
Summary of the method: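 Pooled oligos, each joining a target to an IS621 bridge RNA target-binding loop, were cloned and co-electroporated with a donor plasmid into E. coli. Selective plates carried chloramphenicol/ampicillin/kanamycin and 0.1 mM IPTG, while chloramphenicol/ampicillin LB agar served as control, with two replicates of each. Recombination efficiency rests on averaged, control-corrected counts per million of barcodes at recombinant junctions, shown as log10(CPM+1).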
In the case of “CGAGCAACTTGGGTTCTAACCTGTTGCTT (site CGTGTAACTAA)”, the “recombinant barcode read abundance (log10)” value is reported as 0.181.
In the case of “CGAGCTCCTTGGGTTCTAACCTGTTGCAT (site CGAGCTCCTAA)”, the “recombinant barcode read abundance (log10)” value is reported as 0.0507.
In the case of “CGAGCTCCTTGGGTTCTAACCTGTTGCAT (site CGAGCTCCTAC)”, the “recombinant barcode read abundance (log10)” value is reported as 0.154.
With “CGAGCTCCTTGGGTTCTAACCTGTTGCAT (site CGAGCTCCTAG)” the “recombinant barcode read abundance (log10)” value was 0.425.
In the case of “CGAGCTCCTTGGGTTCTAACCTGTTGCAT (site CGAGCTCCTAT)”, the “recombinant barcode read abundance (log10)” value is reported as 1.86.
For “CGAGCTCCTTGGGTTCTAACCTGTTGCCC (site CGAGCTCCTGG)”, the “recombinant barcode read abundance (log10)” value was 0.591.
For “CGAGCTCCTTGGGTTCTAACCTGTTGCCC (site GGAGCTCCTTG)”, the “recombinant barcode read abundance (log10)” value was 0.512.
For “CGAGCTCCTTGGGTTCTAACCTGTTGCTT (site CGAGCTCCTAA)”, the “recombinant barcode read abundance (log10)” value was 0.324.
With “CGAGCTCCTTGGGTTCTAACCTGTTGCTT (site CGAGCTCCTAC)” the “recombinant barcode read abundance (log10)” value was 0.0191.
With “CGAGCTCCTTGGGTTCTAACCTGTTGCTT (site CGAGCTCCTAG)” the “recombinant barcode read abundance (log10)” value was 1.1.
For “CGAGCTCCTTGGGTTCTAACCTGTTGCTT (site CGAGCTCCTAT)”, the “recombinant barcode read abundance (log10)” value was 0.337.
For “CGAGGGGCTTGGGTTCTAACCTGTTGCCT (site CGAGGGACTAG)”, the “recombinant barcode read abundance (log10)” value was 0.127.
In the case of “CGAGGGGCTTGGGTTCTAACCTGTTGCCT (site CGAGGGCCTAG)”, the “recombinant barcode read abundance (log10)” value is reported as 0.0526.
In the case of “CGAGGGGCTTGGGTTCTAACCTGTTGCCT (site CGAGGGGCTAG)”, the “recombinant barcode read abundance (log10)” value is reported as 0.369.
In the case of “CGAGGGGCTTGGGTTCTAACCTGTTGCCT (site CGAGGGTCTAG)”, the “recombinant barcode read abundance (log10)” value is reported as 0.35.
In the case of “CGATAGCCTTGGGTTCTAACCTGTTGCCT (site AGATAGCCTAG)”, the “recombinant barcode read abundance (log10)” value is reported as 0.024.
In the case of “CGATAGCCTTGGGTTCTAACCTGTTGCCT (site CGATAGCCTAG)”, the “recombinant barcode read abundance (log10)” value is reported as 0.643.
With “CGATAGCCTTGGGTTCTAACCTGTTGCCT (site GGATAGCCTAG)” the “recombinant barcode read abundance (log10)” value was 0.132.
With “CGATAGCCTTGGGTTCTAACCTGTTGCCT (site TGATAGCCTAG)” the “recombinant barcode read abundance (log10)” value was 0.
For “CGATCTACTTGGGTTCTAACCTGTTGCAG (site AAGGGGCCTAG)”, the “recombinant barcode read abundance (log10)” value was 0.23.
With “CGATCTACTTGGGTTCTAACCTGTTGCAG (site CGATCTACTCT)” the “recombinant barcode read abundance (log10)” value was 0.0308.
With “CGATTAACTTGGGTTCTAACCTGTTGCCT (site CGATTAACTAG)” the “recombinant barcode read abundance (log10)” value was 0.139.
In the case of “CGATTAACTTGGGTTCTAACCTGTTGCCT (site CGATTACCTAG)”, the “recombinant barcode read abundance (log10)” value is reported as 0.361.
For “CGATTAACTTGGGTTCTAACCTGTTGCCT (site CGATTAGCTAG)”, the “recombinant barcode read abundance (log10)” value was 0.107.
With “CGATTAACTTGGGTTCTAACCTGTTGCCT (site CGATTATCTAG)” the “recombinant barcode read abundance (log10)” value was 0.0439.
In the case of “CGCAAATCTTGGGTTCTAACCTGTTGCCT (site CGAAAATCTAG)”, the “recombinant barcode read abundance (log10)” value is reported as 0.0245.
In the case of “CGCAAATCTTGGGTTCTAACCTGTTGCCT (site CGCAAATCTAG)”, the “recombinant barcode read abundance (log10)” value is reported as 0.0815.
In the case of “CGCAAATCTTGGGTTCTAACCTGTTGCCT (site CGGAAATCTAG)”, the “recombinant barcode read abundance (log10)” value is reported as 0.0907.
In the case of “CGCAAATCTTGGGTTCTAACCTGTTGCCT (site CGTAAATCTAG)”, the “recombinant barcode read abundance (log10)” value is reported as 0.166.
For “CGCCACCCTTGGGTTCTAACCTGTTGCCT (site CGCCACCCTAG)”, the “recombinant barcode read abundance (log10)” value was 0.165.
For “CGCCACCCTTGGGTTCTAACCTGTTGCCT (site CTGCACCCTAG)”, the “recombinant barcode read abundance (log10)” value was 0.0944.
For “CGCCCGCCTTGGGTTCTAACCTGTTGCCT (site AGCCCGCCTAG)”, the “recombinant barcode read abundance (log10)” value was 0.165.
With “CGCCCGCCTTGGGTTCTAACCTGTTGCCT (site CGCCCGCCTAG)” the “recombinant barcode read abundance (log10)” value was 0.0631.
In the case of “CGCCCGCCTTGGGTTCTAACCTGTTGCCT (site GGCCCGCCTAG)”, the “recombinant barcode read abundance (log10)” value is reported as 0.109.
In the case of “CGCCCGCCTTGGGTTCTAACCTGTTGCCT (site TGCCCGCCTAG)”, the “recombinant barcode read abundance (log10)” value is reported as 0.0262.
For “CGCCCTACTTGGGTTCTAACCTGTTGCTT (site CGCCCTACTAA)”, the “recombinant barcode read abundance (log10)” value was 0.311.
